Data from patent publication US6914045B2, “Glycopeptide antibiotics” (Wyeth Holdings Corporation, priority 2001, dated 2005).

Key:
Test in all cases: in vitro antibacterial evaluation, MIC by broth dilution
Format in all cases: cell-based
Escherichia coli = conditions: 18 hours at 35° C.
Procedure: (§1) The minimum inhibitory concentration (MIC), the lowest concentration of the antibiotic which inhibits growth of the test organism, is determined by the broth dilution method using Muller-Hinton II […] (Baltimore Biological Laboratories) following the recommendations of the National Committee for Clinical Laboratory Standards [Methods for dilution antimicrobial susceptibility tests for bacteria that grow aerobically, approved standard M7-A2, National Committee for Clinical Laboratory Standards, Villanova, Pa.].
(§2) An inoculum level of 5×10^5 CFU/mL, and a range of antibiotic concentrations (64-0.06 μg/mL) is used. […] The test organisms include a spectrum of Gram-positive bacteria comprised of Staphylococcus sp., Streptococcus sp. and Enterococcus sp. These organisms include recent clinical isolates that are resistant to methicillin, penicillin and/or vancomycin.

Enterococcus sp. = conditions: broth dilution, 18 hours at 35° C.
Procedure: (§3) Methods for in vitro Antibacterial Evaluation (Table 1)
as §1, §2

Staphylococcus sp. = test system: Staphylococcus sp.
Procedure: as §3, §1, §2

Streptococcus sp. = conditions: broth dilution, 18 hours at 35° C.
Procedure: as §3, §1, §2

[1] = Enterococcus faecalis (ATCC 29212)
[2] = Enterococcus faecalis (GC 4552)
[3] = broth dilution, 18 hours at 35° C.
[4] = broth dilution, 18 hours at 35° C.; strain GC 4547
[5] = strain ATCC 29213; broth dilution, 18 hours at 35° C.
[6] = strain GC 1131; broth dilution, 18 hours at 35° C.
[7] = strain GC 4535; broth dilution, 18 hours at 35° C.
[8] = strain GC 4536; broth dilution, 18 hours at 35° C.
[9] = strain GC 4537; broth dilution, 18 hours at 35° C.
[10] = strain GC 4538; broth dilution, 18 hours at 35° C.
[11] = strain GC 4547; broth dilution, 18 hours at 35° C.

CC(c1ccccc1)C1NC(=O)CNC(=O)C(CO)NC(=O)C(C(O)C2CNC(=N)N2C2OC(CO)C(O)C(O)C2O)NC(=O)C(C(O)C2CNC(=N)N2)NC(=O)C(Cc2ccc(OC3OC(CO)C(OC4OC(COC(=O)Cc5ccccc5)C(O)C(O)C4O)C(O)C3O)cc2)NC1=O (centres unmarked) [Example 98c]
16 µg/mL: MIC Enterococcus faecalis (ATCC 29212) (Enterococcus sp.; [1]) | MIC Enterococcus faecalis (GC 4552) (Enterococcus sp.; [2]) | MIC Enterococcus faecalis (ATCC 29212) (Enterococcus sp.) | MIC Enterococcus faecalis (GC 4552) (Enterococcus sp.)
64 µg/mL: MIC Escherichia coli (GC 4559) (Escherichia coli)
8 µg/mL: MIC Enterococcus faecalis (GC 2242) (Enterococcus sp.; Enterococcus faecalis (GC 2242)) | MIC Enterococcus faecalis (GC 2242) (Enterococcus sp.)
2 µg/mL: MIC Coagulase Negative Staphylococcus (GC 4537) (Staphylococcus sp.; [3]) | MIC Coagulase Negative Staphylococcus (GC 4537) (Staphylococcus sp.; broth dilution, 18 hours at 35° C.; strain GC 4537) | MIC Staphylococcus aureus (ATCC 29213) (Staphylococcus sp.; [5]) | MIC Staphylococcus aureus (GC 1131) (Staphylococcus sp.; [6]) | MIC Staphylococcus aureus-SMITH (GC 4536) (Staphylococcus sp.; [8])
0.5 µg/mL: MIC Escherichia coli (GC 4560) (Escherichia coli)
1 µg/mL: MIC Coagulase Negative Staphylococcus (GC 4538) (Staphylococcus sp.; [3]) | MIC Coagulase Negative Staphylococcus (GC 4547) (Staphylococcus sp.; [3]) | MIC Coagulase Negative Staphylococcus (GC 4538) (Staphylococcus sp.; broth dilution, 18 hours at 35° C.; strain GC 4538) | MIC Coagulase Negative Staphylococcus (GC 4547) (Staphylococcus sp.; [4])
4 µg/mL: MIC Staphylococcus aureus (GC 4535) (Staphylococcus sp.; [7])

CCCCCC(=O)OCC1OC(Oc2ccc(CC3NC(=O)C(C(C)c4ccccc4)NC(=O)CNC(=O)C(CO)NC(=O)C(C(O)C4CNC(=N)N4C4OC(CO)C(O)C(O)C4O)NC(=O)C(C(O)C4CNC(=N)N4)NC3=O)cc2)C(O)C(O)C1OC1OC(CO)C(O)C(O)C1O (stereo not drawn) [Example 95a, Cyclo[glycyl-β-methylphenylalanyl-O-(6-O-hexanoyl-4-O-hexopranosylhexopyranosyl)-tyrosyl-3-(2-iminoimidazolidin-4-yl)sery-3-(3-hexopyranosyl-2-iminoimidazolidin-4-yl)-serylseryl]]
8 µg/mL: MIC Coagulase Negative Staphylococcus (GC 4537) (Staphylococcus sp.; [3]) | MIC Staphylococcus aureus (GC 4535) (Staphylococcus sp.; [7]) | MIC Coagulase Negative Staphylococcus (GC 4537) (Staphylococcus sp.; [9])
16 µg/mL: MIC Enterococcus faecalis (GC 2242) (Enterococcus sp.) | MIC Enterococcus faecalis (GC 2242) (Enterococcus sp.; strain GC 2242)
4 µg/mL: MIC Coagulase Negative Staphylococcus (GC 4538) (Staphylococcus sp.; [3]) | MIC Coagulase Negative Staphylococcus (GC 4547) (Staphylococcus sp.; [3]) | MIC Staphylococcus aureus (ATCC 29213) (Staphylococcus sp.; [5]) | MIC Staphylococcus aureus (GC 1131) (Staphylococcus sp.; [6]) | MIC Staphylococcus aureus-SMITH (GC 4536) (Staphylococcus sp.; [8]) | MIC Coagulase Negative Staphylococcus (GC 4538) (Staphylococcus sp.; [10]) | MIC Coagulase Negative Staphylococcus (GC 4547) (Staphylococcus sp.; [11])
2 µg/mL: MIC Escherichia coli (GC 4560) (Escherichia coli)
32 µg/mL: MIC Enterococcus faecalis (ATCC 29212) (Enterococcus sp.; [1]) | MIC Enterococcus faecalis (GC 4552) (Enterococcus sp.; [2]) | MIC Enterococcus faecalis (ATCC 29212) (Enterococcus sp.) | MIC Enterococcus faecalis (GC 4552) (Enterococcus sp.)
>64 µg/mL: MIC Escherichia coli (GC 4559) (Escherichia coli)

CCCCCC(=O)OCC1OC(N2C(=N)NCC2C(O)C2NC(=O)C(C(O)C3CNC(=N)N3)NC(=O)C(Cc3ccc(OC4OC(CO)C(OC5OC(CO)C(O)C(O)C5O)C(O)C4O)cc3)NC(=O)C(C(C)c3ccccc3)NC(=O)CNC(=O)C(CO)NC2=O)C(O)C(O)C1O (stereo not drawn) [Example 95, Cyclo[glycyl-β-methylphenylalanyl-O-(4-O-hexojpyranosylhexopyranosyl)tyrosyl-3-(2-iminoimidazolidin-4-yl)seryl-3-[3-(6-O-hexanoylhexopyranosyl)-2-iminoimidazolidin-4-yl]serylseryl]]
8 µg/mL: MIC Escherichia coli (GC 4560) (Escherichia coli)
>64 µg/mL: MIC Escherichia coli (GC 4559) (Escherichia coli) | MIC Enterococcus faecalis (ATCC 29212) (Enterococcus sp.; [1]) | MIC Enterococcus faecalis (GC 4552) (Enterococcus sp.; [2]) | MIC Enterococcus faecalis (ATCC 29212) (Enterococcus sp.) | MIC Enterococcus faecalis (GC 2242) (Enterococcus sp.) | MIC Enterococcus faecalis (GC 4552) (Enterococcus sp.) | MIC Enterococcus faecalis (GC 2242) (Enterococcus sp.; strain GC 2242) | MIC Coagulase Negative Staphylococcus (GC 4537) (Staphylococcus sp.; [3]) | MIC Coagulase Negative Staphylococcus (GC 4538) (Staphylococcus sp.; [3]) | MIC Coagulase Negative Staphylococcus (GC 4547) (Staphylococcus sp.; [3]) | MIC Staphylococcus aureus (ATCC 29213) (Staphylococcus sp.; [5]) | MIC Staphylococcus aureus (GC 1131) (Staphylococcus sp.; [6]) | MIC Staphylococcus aureus (GC 4535) (Staphylococcus sp.; [7]) | MIC Staphylococcus aureus-SMITH (GC 4536) (Staphylococcus sp.; [8]) | MIC Coagulase Negative Staphylococcus (GC 4537) (Staphylococcus sp.; [9]) | MIC Coagulase Negative Staphylococcus (GC 4538) (Staphylococcus sp.; [10]) | MIC Coagulase Negative Staphylococcus (GC 4547) (Staphylococcus sp.; [11])

CC(c1ccccc1)C1NC(=O)CNC(=O)C(CO)NC(=O)C(C(O)C2CNC(=N)N2C2OC(CO)C(O)C(O)C2O)NC(=O)C(C(O)C2CNC(=N)N2)NC(=O)C(Cc2ccc(OC3OC(CO)C(OC4OC(CO)C(OCC=C(c5ccccc5)c5ccccc5)C(O)C4O)C(O)C3O)cc2)NC1=O (centres unmarked) [Example 241a]
2 µg/mL: MIC Enterococcus faecalis (GC 2691) (Enterococcus sp.) | MIC Enterococcus faecalis (GC 3059) (Enterococcus sp.) | MIC Enterococcus faecium (GC 2243) (Enterococcus sp.; strain GC 2243) | MIC Enterococcus faecium (GC 4556) (Enterococcus sp.; strain GC 4556) | MIC Enterococcus faecium (GC 4557) (Enterococcus sp.; strain GC 4557) | MIC Enterococcus avium (GC 4558) (Enterococcus sp.; strain GC 4558) | MIC Enterococcus faecalis (GC 6189) (Enterococcus sp.; strain GC 6189) | MIC Enterococcus faecalis (GC 2691) (Enterococcus sp.; inoculum 5×10^5 CFU/mL, strain GC 2691) | MIC Enterococcus faecalis (GC 3059) (Enterococcus sp.; inoculum 5×10^5 CFU/mL, strain GC 3059) | MIC Coagulase Negative Staphylococcus (GC 4548) (Staphylococcus sp.; [3]) | MIC Staphylococcus aureus (ATCC 29213) (Staphylococcus sp.; [3]) | MIC Staphylococcus aureus (GC 1131) (Staphylococcus sp.; [3]) | MIC Staphylococcus aureus (GC 3051) (Staphylococcus sp.; [3]) | MIC Staphylococcus aureus (GC 3053) (Staphylococcus sp.; [3]) | MIC Staphylococcus aureus (GC 4541) (Staphylococcus sp.; [3]) | MIC Staphylococcus aureus (GC 4542) (Staphylococcus sp.; [3]) | MIC Staphylococcus aureus (GC 4545) (Staphylococcus sp.; [3]) | MIC Staphylococcus aureus-SMITH (GC 4543) (Staphylococcus sp.; [3]) | MIC Staphylococcus haemolyticus (GC 4546) (Staphylococcus sp.; [3]) | MIC Staphylococcus aureus (ATCC 29213) (Staphylococcus sp.; broth dilution, 18 hours at 35° C.; strain ATCC 29213) | MIC Staphylococcus aureus (GC 1131) (Staphylococcus sp.; broth dilution, 18 hours at 35° C.; strain GC 1131) | MIC Staphylococcus aureus (GC 3051) (Staphylococcus sp.; broth dilution, 18 hours at 35° C.; strain GC 3051) | MIC Staphylococcus aureus (GC 3053) (Staphylococcus sp.; broth dilution, 18 hours at 35° C.; strain GC 3053) | MIC Staphylococcus aureus (GC 4541) (Staphylococcus sp.; broth dilution, 18 hours at 35° C.; strain GC 4541) | MIC Staphylococcus aureus (GC 4542) (Staphylococcus sp.; broth dilution, 18 hours at 35° C.; strain GC 4542) | MIC Staphylococcus aureus-SMITH (GC 4543) (Staphylococcus sp.; broth dilution, 18 hours at 35° C.; strain GC 4543) | MIC Staphylococcus aureus (GC 4545) (Staphylococcus sp.; broth dilution, 18 hours at 35° C.; strain GC 4545) | MIC Staphylococcus haemolyticus (GC 4546) (Staphylococcus sp.; broth dilution, 18 hours at 35° C.; strain GC 4546) | MIC Coagulase Negative Staphylococcus (GC 4548) (Staphylococcus sp.; broth dilution, 18 hours at 35° C.; strain GC 4548)
<0.06 µg/mL: MIC Streptococcus agalactiae (GC 4564) (Streptococcus sp.) | MIC Streptococcus pneumoniae (ATCC 6301) (Streptococcus sp.) | MIC Streptococcus pneumoniae (GC 1894) (Streptococcus sp.) | MIC Streptococcus pneumoniae (GC 4565) (Streptococcus sp.) | MIC Streptococcus pyogenes (GC 4563) (Streptococcus sp.) | MIC Streptococcus pneumoniae (ATCC 6301) (Streptococcus sp.; inoculum 5×10^5 CFU/mL, strain ATCC 6301) | MIC Streptococcus pneumoniae (GC 1894) (Streptococcus sp.; inoculum 5×10^5 CFU/mL, strain GC 1894) | MIC Streptococcus pyogenes (GC 4563) (Streptococcus sp.; inoculum 5×10^5 CFU/mL, strain GC 4563) | MIC Streptococcus agalactiae (GC 4564) (Streptococcus sp.; inoculum 5×10^5 CFU/mL, strain GC 4564) | MIC Streptococcus pneumoniae (GC 4565) (Streptococcus sp.; inoculum 5×10^5 CFU/mL, strain GC 4565)
1 µg/mL: MIC Coagulase Negative Staphylococcus (GC 4549) (Staphylococcus sp.; [3]) | MIC Coagulase Negative Staphylococcus (GC 6257) (Staphylococcus sp.; [3]) | MIC Coagulase Negative Staphylococcus (GC 4549) (Staphylococcus sp.; broth dilution, 18 hours at 35° C.; strain GC 4549) | MIC Coagulase Negative Staphylococcus (GC 6257) (Staphylococcus sp.; broth dilution, 18 hours at 35° C.; strain GC 6257)
4 µg/mL: MIC Enterococcus faecalis (GC 2242) (Enterococcus sp.) | MIC Enterococcus faecalis (GC 4552) (Enterococcus sp.) | MIC Enterococcus faecalis (ATCC 29212) (Enterococcus sp.; strain ATCC 29212) | MIC Enterococcus faecalis (GC 4552) (Enterococcus sp.; strain GC 4552) | MIC Enterococcus faecalis (GC 4553) (Enterococcus sp.; strain GC 4553) | MIC Enterococcus faecalis (GC 4554) (Enterococcus sp.; strain GC 4554) | MIC Enterococcus faecalis (GC 2242) (Enterococcus sp.; inoculum 5×10^5 CFU/mL, strain GC 2242) | MIC Coagulase Negative Staphylococcus (GC 4547) (Staphylococcus sp.; [3]) | MIC Coagulase Negative Staphylococcus (GC 4551) (Staphylococcus sp.; [3]) | MIC Staphylococcus aureus (GC 4544) (Staphylococcus sp.; [3]) | MIC Staphylococcus aureus (GC 4544) (Staphylococcus sp.; broth dilution, 18 hours at 35° C.; strain GC 4544) | MIC Coagulase Negative Staphylococcus (GC 4547) (Staphylococcus sp.; [4]) | MIC Coagulase Negative Staphylococcus (GC 4551) (Staphylococcus sp.; broth dilution, 18 hours at 35° C.; strain GC 4551)
